Source: PubChem BioAssay (NCI)
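These data come from cells grown in 96-well plates and exposed to compound for 48 hours at five concentrations. TGI: total growth inhibition.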

Experiments:
Assay in all cases: NCI anticancer screen, dose series, 48 h
[1] = tested on: RXF 393 renal
[2] = tested on: SN12C renal
[3] = tested on: EKVX NSCLC
[4] = tested on: IGROV1 ovarian
[5] = tested on: OVCAR-3 ovarian
[6] = tested on: SF-539 CNS
[7] = tested on: HCT-15 colon
[8] = tested on: CAKI-1 renal
[9] = tested on: NCI-H460 lung
[10] = tested on: SF-268 CNS
[11] = tested on: MOLT-4 leukemia
[12] = tested on: OVCAR-8 ovarian
[13] = tested on: MDA-MB-435
[14] = tested on: BT-549 breast
[15] = tested on: HCC-2998 colon
[16] = tested on: PC-3 prostate

Structure (SMILES)	TGI [1]	TGI [2]	TGI [3]	TGI [4]	TGI [5]	TGI [6]	TGI [7]	TGI [8]	TGI [9]	TGI [10]	TGI [11]	TGI [12]	TGI [13]	TGI [14]	TGI [15]	TGI [16]
CCOc1ccc(N=Cc2cc(OC)c(OC)c(OC)c2)cc1	> 100 µM	> 100 µM	> 100 µM	> 100 µM	> 100 µM	> 100 µM	> 100 µM	> 100 µM	> 100 µM	> 100 µM	> 100 µM	> 100 µM	–	–	–	–
CCCCc1ccc(Nc2nc(Cl)c3[nH]cnc3n2)cc1	31.6 µM	49.9 µM	> 100 µM	71.8 µM	28.9 µM	32.7 µM	34.4 µM	54.1 µM	–	59.9 µM	> 100 µM	37.3 µM	32.1 µM	65.4 µM	41.2 µM	–
CCNC1CC(C(C)(C)NCC)CC=C1C (configuration not stated)	–	> 100 µM	> 100 µM	> 100 µM	> 100 µM	> 100 µM	> 100 µM	–	> 100 µM	> 100 µM	> 100 µM	> 100 µM	> 100 µM	> 100 µM	> 100 µM	> 100 µM
Cc1ccc(N2C(=O)/C(=c3\s/c(=C(/N)O)c(=N)n3-c3ccccc3)SC2=S)cc1	–	–	–	> 100 µM	> 100 µM	> 100 µM	–	–	> 100 µM	> 100 µM	> 100 µM	> 100 µM	–	–	> 100 µM	–
C(/COc1cccnc1)=N\NC1=NCCN1	> 100 µM	> 100 µM	> 100 µM	> 100 µM	> 100 µM	> 100 µM	> 100 µM	> 100 µM	> 100 µM	> 100 µM	> 100 µM	> 100 µM	–	–	> 100 µM	–
CC(=O)CN=C(C)NNc1ccc([N+](=O)[O-])cc1[N+](=O)[O-]	> 100 µM	> 100 µM	> 100 µM	> 100 µM	> 100 µM	> 100 µM	> 100 µM	> 100 µM	> 100 µM	> 100 µM	> 100 µM	> 100 µM	> 100 µM	–	> 100 µM	> 100 µM
COc1cccc(/C=N/n2c(-c3ccccc3)n[nH]c2=O)c1	–	> 100 µM	> 100 µM	–	> 100 µM	> 100 µM	> 100 µM	> 100 µM	> 100 µM	39.8 µM	> 100 µM	96.9 µM	> 100 µM	86.1 µM	> 100 µM	> 100 µM
CC1=CCC2(C#N)CCC1C2=O (configuration not stated)	–	> 100 µM	> 100 µM	> 100 µM	> 100 µM	> 100 µM	> 100 µM	> 100 µM	> 100 µM	> 100 µM	> 100 µM	> 100 µM	–	–	–	–
CC(C)(C)C1CCC2c3c([nH]c4ccccc34)C3C(=O)N(c4ccc(Br)cc4)C(=O)C3C2C1 (configuration not stated)	–	27.6 µM	63.2 µM	48 µM	–	38.7 µM	36.3 µM	43.8 µM	38.9 µM	49.8 µM	26.2 µM	42.9 µM	–	–	11.9 µM	–
CN1N=C(c2ccncc2)OC1c1ccc(Cl)c(Cl)c1 (configuration not stated)	> 100 µM	> 100 µM	> 100 µM	> 100 µM	> 100 µM	> 100 µM	> 100 µM	> 100 µM	> 100 µM	> 100 µM	> 100 µM	> 100 µM	> 100 µM	–	> 100 µM	> 100 µM
Cc1ccc(S(=O)(=O)n2ccn3c(=O)cc(C)nc23)cc1	> 10 µM	> 10 µM	> 10 µM	> 10 µM	> 10 µM	> 10 µM	> 10 µM	> 10 µM	> 10 µM	> 10 µM	> 10 µM	> 10 µM	> 10 µM	> 10 µM	–	> 10 µM
CCCCCCCCCCCCCCCCCCNc1ccn(C2OC(CO)C(OP(=O)(O)OCC3CCC(n4ccc(N)nc4=O)O3)C2O)c(=O)n1 (configuration not stated)	45.1 µM	> 100 µM	> 100 µM	> 100 µM	> 100 µM	> 100 µM	> 100 µM	> 100 µM	> 100 µM	> 100 µM	10.2 µM	> 100 µM	> 100 µM	89.8 µM	–	40.6 µM
c1ccc2cc3n[se]nc3cc2c1	> 100 µM	> 100 µM	> 100 µM	> 100 µM	–	> 100 µM	> 100 µM	> 100 µM	–	> 100 µM	> 100 µM	> 100 µM	–	–	> 100 µM	–
c1ccc(C2CC(N3CCOCC3)=Nc3ccccc3N2)cc1 (configuration not stated)	> 100 µM	> 100 µM	> 100 µM	> 100 µM	> 100 µM	> 100 µM	> 100 µM	> 100 µM	> 100 µM	> 100 µM	> 100 µM	> 100 µM	> 100 µM	> 100 µM	–	> 100 µM
COc1cc(OC)c(/C=N/N=C(\N)NO)c(OC)c1	> 100 µM	> 100 µM	> 100 µM	> 100 µM	> 100 µM	> 100 µM	> 100 µM	> 100 µM	> 100 µM	> 100 µM	> 100 µM	> 100 µM	> 100 µM	–	> 100 µM	> 100 µM
CCC(C)(C)NC1=C(NC(C)=O)C(=O)c2ccccc2C1=O	> 75 µM	> 75 µM	> 75 µM	> 75 µM	> 75 µM	> 75 µM	> 75 µM	–	> 75 µM	> 75 µM	31.6 µM	> 75 µM	–	–	> 75 µM	–
CC(C)NC(C)Cc1ccccc1 (configuration not stated)	> 100 µM	> 100 µM	> 100 µM	> 100 µM	> 100 µM	> 100 µM	> 100 µM	> 100 µM	> 100 µM	> 100 µM	–	> 100 µM	–	–	> 100 µM	–
